The values below come from publication PMC11982498 (Redox Biology, 2025).

SMILES strings stand for the structures. Where only a bound is given, the exact number is not on record here.

The test system of data set [1] is APP/PS1 transgenic mice. The data set is described as follows: Novel object recognition (NOR). The conditions noted are these: B14 10, 20, 40 mg/kg i.p. every other day. The format is in vivo. An excerpt:
Five months old male APP/PS1 mice, weighing 25–33 g, were purchased from Guangdong Medical Laboratory Animal Center and housed in the Laboratory Animal Center of Sun Yat-sen University (Guangzhou, China) for experimentation. All procedures were approved by the Animal Care and Use Committee of Sun Yat-sen University and complied with legal requirements and national guidelines for the care and maintenance of laboratory animals (Approval No. SYSU-IACUC-2024-002032). The mice were housed in a specific pathogen-free environment with a controlled temperature of 22 ± 1 °C and a 12-h dark/light cycle. The mice were fed with a standard diet, and 30 mice were randomly divided into 6 groups (N = 5). Compound B14 was dissolved in saline and administered at doses of 10, 20, or 40 mg/kg. […]
The spatial memory and learning abilities of the mice were assessed using Morris water maze (MWM), novel object recognition (NOR) and nesting experiments (NBT). The anxiety and depressive behaviors were evaluated through the open field test (OFT) and elevated plus maze (EPM). […]
The novel object recognition (NOR) test evaluates mice's memory for familiar objects and their exploration of novel objects. […] The time spent exploring each object was recorded. The mice's learning and memory abilities were assessed by calculating the preference index (PI) using the formula PI = tB / (tA1 + tB).

Data set [2] deals with BCL-2(G4) (DNA, G4) AGGGGCGGGCGCGGGAGGAAGGGGGCGGGAGCGGGGCTG
The data set is described as follows: CD melting, 260 nm. The conditions noted are these: K+ 100 mM; Figure S6 legend says Na+ 20 mM; Tris-HCl, pH 7.4; 20 μM B14, 2 μM DNA.

Data set [3] has as its system bio-HRAS (DNA, i motif) CGCCCGTGCCCTGCGCCCGCAACCCGA
Put plainly: SPR. The conditions noted are these: K+ 100 mM; 20 mM MES, pH 5.5, 25 °C.

Data set [4] relates to bEnd.3 in vitro BBB model. Put plainly: Measurement of in vitro BBB transport (bEnd.3 transwell). The class given is in vitro ADME. How it is done:
bEnd.3 (10 × 10^4 cells/well) was cultured in the upper chamber of a 12 wells-plate within a transwell system. The transepithelial electrical resistance (TEER) was measured to monitor the tightness of the monolayer, and the monolayer of cells with a minimum of 200 Ω cm^2 was used for further experiments.

The subject of data set [5] is SH-SY5Y cells. Put plainly: FITC Annexin V/PI cell apoptosis analysis in Aβ1-42 model. The format is cell-based. The conditions noted are these: 25 μM Aβ1-42 induced model. How it is done: The FITC Annexin V/PI apoptosis analysis was conducted using the FITC Annexin V/PI Apoptosis Detection Kit (Muti sciences, 70-AP101-100). Cells were treated with varying concentrations of B14 in a 6-well plate containing a cell model induced with 25 μM Aβ1-42. After digestion and resuspension in 500 μL binding buffer, samples were incubated with 5 μL of FITC Annexin V for 5 minutes, followed by the addition of 5 μL PI for further incubation at room temperature for 10 minutes. Flow cytometry analysis (Millipore, guava easy Cyte) was used to measure fluorescence intensity, and data analysis was performed using Flow jo V10.

Data set [6] deals with T1, Aβ1-42 (Homo sapiens, UniProt P05067).
T1 construct: Aβ1-42 was purchased from Gill Biochemicals Ltd (Shanghai, China); purchased Gill Biochemicals Ltd (Shanghai, China)
The data set is described as follows: Thioflavine T (ThT) assay of self-induced Aβ1-42 aggregation. The class given is biochemical. How it is done: The experiment was performed following standardized amyloid detection protocols without significant modification. Curcumin (Aladdin, Shanghai, China), a natural inhibitor of Aβ deposition, was used as a positive control with ThT (Aladdin, Shanghai, China) as a fluorescent indicator. 30 μL of freshly formulated Aβ1-42 (30 μM) was incubated without or with A1-16, B1-14, Curcumin at concentration of 40 μM for 24h. Then, it was mixed with 400 μL of freshly formulated ThT (15 μM), which was incubated in the dark for 30 min. Fluorescence signals were recorded using a fluorescence spectrophotometer, and changes in Aβ fibre deposition were determined through the strength of the fluorescence signals. The scanning conditions were set as follows: excitation wavelength at 440 nm, emission wavelength at 480 nm, and slit width of 20 nm.
^a Self-induced Aβ1-42 aggregation (means ± SD of three experiments). The thioflavin-T fluorescence method was used, and the measurements were carried out in the presence of 40 μM test compound. […]
[picture] […] The fluorescence intensity of different concentrations of B14 was measured after incubation with Aβ1-42. Data were statistically analyzed as mean ± SEM. (A) ThT fluorescence intensity. (B) IC50 value for B14 against Aβ1-42 aggregation was determined by using ThT fluorescence intensity.

T1 sequence (P05067 672-713 limits assumed): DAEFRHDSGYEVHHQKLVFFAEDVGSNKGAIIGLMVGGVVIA

On to `O=C(CCN1CCOCC1)Nc1ccc2c(c1)c(=O)c1cc(NC(=O)CCN3CCOCC3)ccc1n2-c1ccc2occc2c1` [Compound B14], for which, in data set [1], the “times to touch new objects and index of preference (NOR)” value is on record as “significantly increased”. In data set [2], the ΔTm was -3.13 °C. This compound gave a KD in data set [3] of over 50 µM. Moreover, the results for the Permeability in data set [4] (6 h) and in data set [4] (24 h) were 45.80% and 55.74%, respectively. In addition, in data set [5], the apoptosis ratio entry is given as “decreased in a dose-dependent manner”. Further, the inhibition at 40 µM in data set [6] (40 μM compound, ThT fluorescence, read-out: inhibition of Aβ self-aggregation) was found to be 78.4%. The IC50 in data set [6] (ThT fluorescence intensity, read-out: IC50 against Aβ1-42 aggregation) came to 24 µM.
